Test results reported in ChEMBL document CHEMBL3885881, “DrugMatrix”.

Species on record: Rattus norvegicus
Assay: DrugMatrix - Regimen: Daily Repeat
Format: toxicity, organism-based, Sprague-Dawley
Design: regimen Daily Repeat, gender Male, age 6-8 weeks
Conditions: in vivo, po, route oral GAVAGE, […]; for ABSOLUTE BASOPHIL / ABSOLUTE EOSINOPHIL / ABSOLUTE MONOCYTE / ABSOLUTE SEGMENTED NEUTROPHIL / BASOPHIL / EOSINOPHIL / ERYTHROCYTE COUNT / HEMATOCRIT / HEMOGLOBIN / LEUKOCYTE COUNT / LYMPHOCYTE / MEAN CORPUSCULAR HEMOGLOBIN / MEAN CORPUSCULAR HEMOGLOBIN CONCENTRATION / MEAN CORPUSCULAR VOLUME / MONOCYTE / NEUTROPHIL / NUCLEATED RED BLOOD CELLS / PLATELET COUNT: tissue Blood
[1] = 100 mg/kg, 120 h, tissue Plasma, dose level Low, time 5 day
[2] = 750 mg/kg, 72 h, dose level High, time 3 day
[3] = 750 mg/kg, 72 h, tissue Plasma, dose level High, time 3 day
[4] = 750 mg/kg, 120 h, dose level High, time 5 day
[5] = 750 mg/kg, 120 h, tissue Plasma, dose level High, time 5 day

## COc1cc([C@@H]2c3cc4c(cc3[C@@H](O[C@@H]3O[C@@H]5CO[C@@H](C)O[C@H]5[C@H](O)[C@H]3O)[C@H]3COC(=O)[C@H]23)OCO4)cc(OC)c1O [ETOPOSIDE]
[1]
  PHOSPHORUS: 9.87 mg/dL
  POTASSIUM: 5.33 MEQ/L
  SODIUM: 145.8 MEQ/L
  TOTAL BILIRUBIN: 0.1 mg/dL
  TOTAL PROTEIN: 5.6 G/DL
  URIC ACID: 0.4 mg/dL
[2]
  ABSOLUTE BASOPHIL: 0 CELLS/uL
  ABSOLUTE EOSINOPHIL: 0 CELLS/uL
  ABSOLUTE MONOCYTE: 23 CELLS/uL
  ABSOLUTE SEGMENTED NEUTROPHIL: 326.67 CELLS/uL
  BASOPHIL: 0%
  EOSINOPHIL: 0%
  ERYTHROCYTE COUNT: 4.79 x10E6/uL
  HEMATOCRIT: 30.9%
  HEMOGLOBIN: 12.47 G/DL
  LEUKOCYTE COUNT: 4 x10E3/uL
  LYMPHOCYTE: 91.33%
  MEAN CORPUSCULAR HEMOGLOBIN: 26 pg
  MEAN CORPUSCULAR HEMOGLOBIN CONCENTRATION: 40.33 G/DL
  MEAN CORPUSCULAR VOLUME: 64.5 fL
  MONOCYTE: 0.67%
  NEUTROPHIL: 8%
  NUCLEATED RED BLOOD CELLS: 0 /100WBC
  PLATELET COUNT: 1133.33 x10E3/uL
[3]
  ALANINE AMINOTRANSFERASE: 36.33 u/L
  ALBUMIN: 3.77 G/DL
  ASPARTATE AMINOTRANSFERASE: 71 u/L
  BLOOD UREA NITROGEN: 9 mg/dL
  CARBON DIOXIDE: 26 mmol/L
  CHOLESTEROL: 79.67 mg/dL
  CREATINE PHOSPHOKINASE: 235.33 u/L
  CREATININE: 0.1 mg/dL
  GLUCOSE: 189 mg/dL
  LACTATE DEHYDROGENASE: 94.67 u/L
  LIPASE: 11.33 u/L
  PHOSPHORUS: 11.07 mg/dL
  POTASSIUM: 4.56 MEQ/L
  SODIUM: 142.5 MEQ/L
  TOTAL BILIRUBIN: 0.1 mg/dL
  TOTAL PROTEIN: 5.4 G/DL
  URIC ACID: 0.37 mg/dL
[4]
  ABSOLUTE BASOPHIL: 0 CELLS/uL
  ABSOLUTE EOSINOPHIL: 0 CELLS/uL
  ABSOLUTE MONOCYTE: 44.5 CELLS/uL
  ABSOLUTE SEGMENTED NEUTROPHIL: 165.5 CELLS/uL
  BASOPHIL: 0%
  EOSINOPHIL: 0%
  ERYTHROCYTE COUNT: 6.19 x10E6/uL
  HEMATOCRIT: 38.1%
  HEMOGLOBIN: 15.5 G/DL
  LEUKOCYTE COUNT: 2.85 x10E3/uL
  LYMPHOCYTE: 93%
  MEAN CORPUSCULAR HEMOGLOBIN: 25.05 pg
  MEAN CORPUSCULAR HEMOGLOBIN CONCENTRATION: 40.7 G/DL
  MEAN CORPUSCULAR VOLUME: 61.55 fL
  MONOCYTE: 1.5%
  NEUTROPHIL: 5.5%
  NUCLEATED RED BLOOD CELLS: 0 /100WBC
  PLATELET COUNT: 975 x10E3/uL
[5]
  ALANINE AMINOTRANSFERASE: 21.5 u/L
  ALBUMIN: 4.1 G/DL
  ASPARTATE AMINOTRANSFERASE: 87 u/L
  BLOOD UREA NITROGEN: 106.5 mg/dL
  CARBON DIOXIDE: 28 mmol/L
  CHLORIDE: 92 MEQ/L
  CHOLESTEROL: 83.5 mg/dL
  CREATINE PHOSPHOKINASE: 328.5 u/L
  CREATININE: 0.69 mg/dL
  GLUCOSE: 115 mg/dL
  LACTATE DEHYDROGENASE: 82 u/L
  LIPASE: 10 u/L
  PHOSPHORUS: 9.8 mg/dL
  POTASSIUM: 6.46 MEQ/L
  SODIUM: 133.6 MEQ/L
  TOTAL BILIRUBIN: 0.15 mg/dL
  TOTAL PROTEIN: 6.3 G/DL
  URIC ACID: 0.35 mg/dL
